Measurements from US20240360194A1, “New Peptides as Potent and Selective GIP Receptor Agonists” (Sanofi, priority 2021, published 2024).
Numbered stars: 1 amine (or outer) side, 2 acyl side, 3 side chain; on linkers, the order of the positions; unused ones are H or OH. Square brackets hold non-standard residues; d marks the D form. Side chains are listed from the residue outwards. Peptide text beside a SMILES is read from it. * marks the point of attachment. C18 diacid = O=C(O)CCCCCCCCCCCCCCCCC(=O)*; γGlu = O=C(O)[C@H](CCC(=O)[*:2])N[*:1]; Abu = CC[C@H](N)C(=O)O; AEEA = NCCOCCOCC(=O)O; Aib = CC(C)(N)C(=O)O

How the values were obtained:
[1] = Solubility assessment (UHPLC-UV of supernatant, target 10 mg/ml); type: physicochemical; details: for Soluble amount: 24 h, pH 7.4; for solubility at 24 h: pH 7.4, Soluble amount
Method: Prior to the solubility measurement of a peptide batch, its purity was determined through UHPLC/MS.
Therefore, solutions from solid samples were prepared in a buffer system with a concentration of 10 mg/ml compound based on the previously determined % purity: • Solubility buffer system A) 100 mM phosphate buffer pH 7.4 • Solubility buffer system B) 8 mM phosphate buffer pH 7.4, 14 mg/ml propylene glycol, 5.5 mg/ml phenol • Solubility buffer system C) 100 mM phosphate buffer pH 7.4, 2.7 mg/ml m-cresol
UHPLC-UV was performed after 1 h of gentle agitation and storage at 5° C. overnight (24 h) from the supernatant, which was obtained after 15 min of centrifugation at 2500 RCF (relative centrifugal acceleration).
The different UV extinction coefficients of sample and reference peptide were calculated based on the different amino acid sequences and considered in the concentration calculation.
The analytical method used was Analytical UHPLC Method A.
Peptide samples were prepared in solubility buffer system A or C and solubility was assessed as described in Methods.

[2] = target: T1, human GIP receptor (hGIPR) (Homo sapiens, UniProt P48546); assay: Binding assay, displacement of [125I]GIP from HEK-293 membranes over-expressing GIPR (SPA); details: [125I]GIP displacement
T1 sequence (P48546 22-466): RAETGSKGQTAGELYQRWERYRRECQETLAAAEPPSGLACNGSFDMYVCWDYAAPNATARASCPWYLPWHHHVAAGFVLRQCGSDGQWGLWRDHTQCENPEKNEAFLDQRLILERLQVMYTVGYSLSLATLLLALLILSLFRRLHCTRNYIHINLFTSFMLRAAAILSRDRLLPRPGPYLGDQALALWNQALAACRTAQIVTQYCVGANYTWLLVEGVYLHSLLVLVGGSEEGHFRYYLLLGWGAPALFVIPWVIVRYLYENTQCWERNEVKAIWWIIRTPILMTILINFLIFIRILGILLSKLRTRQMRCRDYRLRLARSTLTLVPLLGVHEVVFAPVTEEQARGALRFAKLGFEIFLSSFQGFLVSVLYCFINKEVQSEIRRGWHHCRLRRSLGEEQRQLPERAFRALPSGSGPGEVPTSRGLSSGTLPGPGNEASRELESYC
Method: (1) Preparation of Membranes from HEK-293 Cells Over-Expressing GIPR or GLP-1R
HEK-293 cells recombinantly over-expressing GIPR or GLP-1R were grown to 50% confluency, washed with warm 1×PBS (Gibco) and detached in HEPES/EDTA-buffer (100 mM HEPES pH 7.5, 5 mM EDTA). Cells were harvested by centrifugation at 4° C. and 3000×g and the pellets were stored at −80° C. until further processing.
After thawing on ice, pellets were resuspended in HEPES/EDTA-buffer and homogenized on ice for 1 min using Ultra-Turray T25. After subsequent sonification the cell debris was removed by centrifugation at 1000×g and 4° C. Supernatants were then ultra-centrifuged at 100000×g and 4° C. under vacuum for 30 min. Pellets were resuspended in HEPES/EDTA/NaCl-buffer (20 mM HEPES, 1 mM EDTA, 150 mM NaCl; add 1 Complete Mini Protease inhibitor cocktail to 10 ml buffer) and protein content was determined via BCA-Protein assay.
(2) Measurement of Binding Activity of Test Compounds to Human GIPR or GLP-1R

human GIP receptor = target: T2, human GIP receptor (Homo sapiens, UniProt P48546); assay: In vitro cellular cAMP assay for GIP receptor efficacy (human adipocytes); type: cell-based; details: for EC50: read-out: hGIPR EC50; for Emax: read-out: hGIPR Emax
T2 construct: human adipocytes endogenously expressing the human GIP receptor; host or cells: human preadipocytes (Lonza) differentiated to adipocytes
T2 sequence (P48546 22-466): T1 sequence (P48546 22-466)
Method: For this, one vial of human preadipocytes (˜10^6 cells; Lonza) was thawed in a T-75 cell culture dish. The cells were cultivated at 37° C., 5% CO2, 95% humidity in Preadipocyte Growth Medium with Supplement Mix from Promo Cell.
After 3 days, the cells were washed with PBS and 1.5 ml Trypsin, incubated for 4 min, then resuspended in medium, centrifugated for 10 min @ 300 rcf RT, resuspended again and distributed to four T-75 cell culture dishes. Again, the cells were cultivated at 37° C., 5% CO2, 95% humidity.
After 5 days, the cells were washed with PBS and 1.5 ml Trypsin, incubated for 4 min, then resuspended in medium, centrifugated for 10 min @ 300 rcf RT, resuspended again and sawn in T-75 dishes (2.5×10^6 cells per dish) in 15 ml Differentiation medium each.
The differentiation medium had the following composition: DMEM (Gibco), Ham's F10 (Gibco), 15 mM HEPES (Gibco), 3% FCS (PAA), 33 μM biotin (Sigma-Aldrich), 17 μM Pantothenate (Sigma-Aldrich), 0.1 μM human insulin (Sigma-Aldrich), 1 μM dexamethason (Sigma-Aldrich), 0.1 μM PPARgamma agonist (#R2408, Sigma-Aldrich), 0.6×Anti-Anti (#15240, ThermoFisher), 200 μM IBMX (AppliChem), and 0.01 μM L-thyroxine (Sigma-Aldrich).
After 6 days of differentiation, 5000 cells per well were dispensed on a 96-well plate (#CLS3694 from Corning®, Sigma-Aldrich). For measurement of cAMP generation, 25 μL of test compound was added to each well of the 96-well plate, followed by incubation for 30 min at room temperature.
The cAMP generated following test compound stimulation was determined using a kit from Cisbio Corp. based on HTRF (Homogenous Time Resolved Fluorescence). The cAMP assay was performed according to manufacturer's instructions (Cisbio).
The cAMP content of cells was determined using a kit from Cisbio Corp. based on HTRF (Homogenous Time Resolved Fluorescence).
After addition of HTRF reagents diluted in lysis buffer (kit components), the plates were incubated for 1 h, followed by measurement of the fluorescence ratio at 665/620 nm.

[3] = target: human GLP-1 receptor (hGLP-1R) (Homo sapiens, UniProt P43220); assay: In vitro cellular cAMP assay for GLP-1 receptor efficacy (HEK-293 cell line over-expressing receptor); type: cell-based; details: HEK-293, 0.1% BSA
human GLP-1 receptor (hGLP-1R), sequence (P43220 24-463): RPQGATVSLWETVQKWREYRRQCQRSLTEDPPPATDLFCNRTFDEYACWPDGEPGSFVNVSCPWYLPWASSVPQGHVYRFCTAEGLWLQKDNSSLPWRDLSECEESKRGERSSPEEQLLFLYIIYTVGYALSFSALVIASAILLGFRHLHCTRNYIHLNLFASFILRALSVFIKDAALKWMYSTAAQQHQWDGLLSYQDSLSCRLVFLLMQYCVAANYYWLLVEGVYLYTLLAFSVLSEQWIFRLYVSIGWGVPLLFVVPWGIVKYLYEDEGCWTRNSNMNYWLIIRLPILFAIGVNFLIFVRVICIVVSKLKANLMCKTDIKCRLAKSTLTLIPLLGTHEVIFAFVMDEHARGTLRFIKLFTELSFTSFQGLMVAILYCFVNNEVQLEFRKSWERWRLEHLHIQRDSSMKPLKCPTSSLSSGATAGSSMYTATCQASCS

Compound	Soluble amount [1] [mg/mL]	solubility at 24 h [1] [µg/mL]	IC50 [2] [nM]	EC50 (human GIP receptor) [nM]	Emax (human GIP receptor) [%]	EC50 [3] [nM]
CC[C@H](NC(=O)[C@@H](NC(=O)CNC(=O)[C@H](CCC(=O)O)NC(=O)C(C)(C)NC(=O)[C@@H](N)Cc1ccc(O)cc1)[C@@H](C)O)C(=O)N[C@H](C(=O)N[C@@H](CO)C(=O)N[C@@H](CC(=O)O)C(=O)N[C@@H](CC(C)C)C(=O)N[C@@H](CO)C(=O)N[C@H](C(=O)NC(C)(C)C(=O)N[C@@H](CCCCNC(=O)COCCOCCNC(=O)COCCOCCNC(=O)CC[C@H](NC(=O)CCCCCCCCCCCCCCCCC(=O)O)C(=O)O)C(=O)N[C@@H](CC(=O)O)C(=O)N[C@@H](CCCNC(=N)N)C(=O)N[C@H](C(=O)N[C@@H](Cc1c[nH]cn1)C(=O)N[C@@H](CCC(N)=O)C(=O)N[C@@H](CCC(=O)O)C(=O)N[C@@H](CCC(=O)O)C(=O)N[C@@H](Cc1ccccc1)C(=O)N[C@H](C(=O)N[C@@H](CCC(=O)O)C(=O)N[C@@H](Cc1c[nH]c2ccccc12)C(=O)N[C@@H](CC(C)C)C(=O)N[C@@H](CC(C)C)C(=O)N[C@@H](C)C(=O)N[C@@H](CCC(N)=O)C(=O)NCC(=O)N1CCC[C@H]1C(=O)N[C@@H](CO)C(=O)N[C@@H](CO)C(=O)NCC(=O)N[C@@H](C)C(=O)N1CCC[C@H]1C(=O)N1CCC[C@H]1C(=O)N1CCC[C@H]1C(=O)N[C@@H](CO)C(N)=O)[C@@H](C)CC)[C@@H](C)CC)[C@@H](C)CC)[C@@H](C)CC [SEQ ID NO: 25, H2N-Y-Aib-E-G-T-Abu-I-S-D-L-S-I-Aib-K[{AEEA}2-gGlu-C18OH]-DRIHQEEFIEWLLAQGPSSGAPPPS-NH2] (H-Y[Aib]EGT[Abu]ISDLSI[Aib]K([AEEA-AEEA-γGlu-C18 diacid])DRIHQEEFIEWLLAQGPSSGAPPPS-NH2)	>9.2	> 8800	0.1	0.2	112	> 10
CC[C@H](C)[C@H](NC(=O)[C@H](Cc1ccccc1)NC(=O)[C@H](CCC(=O)O)NC(=O)[C@H](CCC(=O)O)NC(=O)[C@H](CCC(N)=O)NC(=O)[C@H](Cc1c[nH]cn1)NC(=O)[C@@H](NC(=O)[C@H](CCCNC(=N)N)NC(=O)[C@H](CC(=O)O)NC(=O)[C@H](CCCCNC(=O)COCCOCCNC(=O)COCCOCCNC(=O)CC[C@H](NC(=O)CCCCCCCCCCCCCCCCC(=O)O)C(=O)O)NC(=O)C(C)(C)NC(=O)[C@@H](NC(=O)[C@H](CO)NC(=O)[C@H](CC(C)C)NC(=O)[C@H](CC(=O)O)NC(=O)[C@H](CO)NC(=O)[C@@H](NC(=O)[C@H](Cc1ccccc1)NC(=O)[C@@H](NC(=O)CNC(=O)[C@H](CCC(=O)O)NC(=O)C(C)(C)NC(=O)[C@@H](N)Cc1ccc(O)cc1)[C@@H](C)O)[C@@H](C)CC)[C@@H](C)CC)[C@@H](C)CC)C(=O)N[C@@H](CCC(=O)O)C(=O)N[C@@H](Cc1c[nH]c2ccccc12)C(=O)N[C@@H](CC(C)C)C(=O)N[C@@H](CC(C)C)C(=O)N[C@@H](C)C(=O)N[C@@H](CCC(N)=O)C(=O)N[C@@H](CCC(=O)O)C(=O)N1CCC[C@H]1C(=O)N[C@@H](CO)C(=O)N[C@@H](CO)C(=O)NCC(=O)N[C@@H](C)C(=O)N1CCC[C@H]1C(=O)N1CCC[C@H]1C(=O)N1CCC[C@H]1C(=O)N[C@@H](CO)C(N)=O [SEQ ID NO: 27, H2N-Y-Aib-E-G-T-F-I-S-D-L-S-I-Aib-K[{AEEA}2-gGlu-C18OH]-DRIHQEEFIEWLLAQEPSSGAPPPS-NH2] (H-Y[Aib]EGTFISDLSI[Aib]K([AEEA-AEEA-γGlu-C18 diacid])DRIHQEEFIEWLLAQEPSSGAPPPS-NH2)	>8.4	> 9000	0.7	0.6	116	> 10
CC[C@H](C)[C@H](NC(=O)[C@H](Cc1ccccc1)NC(=O)[C@H](CCC(=O)O)NC(=O)[C@H](CCC(=O)O)NC(=O)[C@H](CCC(N)=O)NC(=O)[C@H](Cc1c[nH]cn1)NC(=O)[C@@H](NC(=O)[C@H](CCCNC(=N)N)NC(=O)[C@H](CC(=O)O)NC(=O)[C@H](CCCCNC(=O)COCCOCCNC(=O)COCCOCCNC(=O)CC[C@H](NC(=O)CCCCCCCCCCCCCCCCC(=O)O)C(=O)O)NC(=O)C(C)(C)NC(=O)[C@@H](NC(=O)[C@H](CO)NC(=O)[C@H](CC(C)C)NC(=O)[C@H](CC(=O)O)NC(=O)[C@H](CO)NC(=O)[C@@H](NC(=O)[C@H](Cc1ccccc1)NC(=O)[C@@H](NC(=O)CNC(=O)[C@H](CCC(=O)O)NC(=O)C(C)(C)NC(=O)[C@@H](N)Cc1ccc(O)cc1)[C@@H](C)O)[C@@H](C)CC)[C@@H](C)CC)[C@@H](C)CC)C(=O)N[C@@H](CCC(=O)O)C(=O)N[C@@H](Cc1c[nH]c2ccccc12)C(=O)N[C@@H](CC(C)C)C(=O)N[C@@H](CC(C)C)C(=O)N[C@@H](C)C(=O)N[C@@H](CCC(N)=O)C(=O)N[C@@H](CCC(=O)O)C(=O)N1CCC[C@H]1C(=O)N[C@@H](CO)C(=O)N[C@@H](CO)C(=O)NCC(=O)N[C@@H](C)C(=O)N1CCC[C@H]1C(=O)N1CCC[C@H]1C(=O)N1CCC[C@H]1C(=O)N[C@@H](CO)C(=O)O [SEQ ID NO: 28, H2N-Y-Aib-E-G-T-F-I-S-D-L-S-I-Aib-K[{AEEA}2-gGlu-C18OH]-DRIHQEEFIEWLLAQEPSSGAPPPS-OH] (H-Y[Aib]EGTFISDLSI[Aib]K([AEEA-AEEA-γGlu-C18 diacid])DRIHQEEFIEWLLAQEPSSGAPPPS-OH)	>9.0	> 9400	0.8	0.5	103	> 10
